Source: patent US20150197497A1, “SELECTIVE INHIBITORS OF HISTONE DEACETYLASE ISOFORM 6 AND METHODS THEREOF” (DANA-FARBER CANCER INSTITUTE, INC., priority 2011, published 2015)

How the values were obtained:
[1] = test system: acetylated tubulin; experiment: High-content image analysis of induction of acetylated tubulin in A549 cells; conditions: for EC50: Homo sapiens, A549, 8 h, read-out: EC50 for half-maximal induction of acetylated tubulin (AcTubulin); for AcHistone/AcTubulin in cell selectivity toward HDAC6: ratio of EC50 acetylated histone to EC50 acetylated tubulin, A549 cells
[2] = target: T1, HDAC6 (Homo sapiens, UniProt Q9UBN7); experiment: In vitro HDAC enzyme inhibition assay, HDAC6; type: biochemical; conditions: recombinant full-length HDAC6, substrate MAZ1600 9 μM
T1 construct: Recombinant, full-length HDAC protein (BPS Biosciences) was incubated with fluorophore conjugated substrate; purchased BPS Biosciences
T1 sequence (Q9UBN7 1-1215): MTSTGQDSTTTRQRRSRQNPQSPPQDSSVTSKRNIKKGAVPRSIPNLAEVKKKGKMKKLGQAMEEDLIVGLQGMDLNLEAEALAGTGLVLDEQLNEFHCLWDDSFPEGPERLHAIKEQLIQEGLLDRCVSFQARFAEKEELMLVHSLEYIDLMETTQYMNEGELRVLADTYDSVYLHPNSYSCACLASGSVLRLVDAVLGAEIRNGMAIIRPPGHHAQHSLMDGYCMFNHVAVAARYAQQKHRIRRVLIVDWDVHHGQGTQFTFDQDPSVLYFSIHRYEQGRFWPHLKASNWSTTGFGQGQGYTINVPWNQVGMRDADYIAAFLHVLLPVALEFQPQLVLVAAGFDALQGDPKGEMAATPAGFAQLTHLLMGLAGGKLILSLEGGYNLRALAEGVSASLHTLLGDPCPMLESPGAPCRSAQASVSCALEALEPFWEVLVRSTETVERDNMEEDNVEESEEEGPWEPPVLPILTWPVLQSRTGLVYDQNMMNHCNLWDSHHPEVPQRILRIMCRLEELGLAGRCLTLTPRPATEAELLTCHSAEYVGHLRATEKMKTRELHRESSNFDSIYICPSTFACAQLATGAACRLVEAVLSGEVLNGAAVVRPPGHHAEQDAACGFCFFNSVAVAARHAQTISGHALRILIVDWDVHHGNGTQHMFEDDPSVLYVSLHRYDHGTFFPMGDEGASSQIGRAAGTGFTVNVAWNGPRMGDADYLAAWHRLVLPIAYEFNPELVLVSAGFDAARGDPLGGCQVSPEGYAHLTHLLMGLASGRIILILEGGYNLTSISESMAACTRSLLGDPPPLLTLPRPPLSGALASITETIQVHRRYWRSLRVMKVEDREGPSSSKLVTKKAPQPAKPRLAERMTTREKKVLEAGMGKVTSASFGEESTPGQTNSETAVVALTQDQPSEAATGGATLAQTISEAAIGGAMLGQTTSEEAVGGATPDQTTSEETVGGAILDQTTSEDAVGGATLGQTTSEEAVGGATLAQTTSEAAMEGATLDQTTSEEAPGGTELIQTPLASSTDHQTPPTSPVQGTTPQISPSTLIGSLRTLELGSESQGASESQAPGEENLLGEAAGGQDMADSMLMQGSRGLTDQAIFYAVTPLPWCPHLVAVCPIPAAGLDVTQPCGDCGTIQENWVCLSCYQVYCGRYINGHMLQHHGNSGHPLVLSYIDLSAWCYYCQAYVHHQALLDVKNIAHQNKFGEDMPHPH
Protocol: (§1) In vitro Histone Deacetylase enzyme assays were performed using Class I (isoforms: HDAC1, HDAC2, HDAC3 and HDAC8), class IIa (isoforms: HDAC4, HDAC5, HDAC7 and HDAC9) and class IIb (isoform HDAC6).
(§2) HDAC activities were determined in vitro with an optimized homogenous assay performed in a 384-well plate. Recombinant, full-length HDAC protein (BPS Biosciences) was incubated with fluorophore conjugated substrate, MAZ1600 and MAZ1675, at Km=[S]. […] Reactions were performed in assay buffer (50 mM HEPES, 100 mM KCl, 0.001% Tween-20, 0.05% BSA, 200 μM tris(2-carboxyethyl)phosphine (TCEP), pH 7.4) and followed for fluorogenic release of 7-amino-4-methylcoumarin from substrate upon deacetylase and trypsin enzymatic activity. Fluorescence measurements were obtained every five minutes using a multilabel plate reader and plate-stacker (Envision; Perkin-Elmer). Each plate was analyzed by plate repeat, and the first derivative within the linear range was imported into analytical software (Spotfire DecisionSite and GraphPad Prism). Replicate experimental data from incubations with inhibitor were normalized to controls.

[3] = target: T2, HDAC3 (Homo sapiens, UniProt O15379); experiment: In vitro HDAC enzyme inhibition assay, HDAC3; type: biochemical; conditions: for HDAC3/HDAC6 in vitro selectivity: ratio of IC50 for HDAC3 relative to that of HDAC6; for IC50: recombinant full-length HDAC3, substrate MAZ1600 9 μM
T2 construct: Recombinant, full-length HDAC protein (BPS Biosciences) was incubated with fluorophore conjugated substrate; purchased BPS Biosciences
T2 sequence (O15379 whole entry): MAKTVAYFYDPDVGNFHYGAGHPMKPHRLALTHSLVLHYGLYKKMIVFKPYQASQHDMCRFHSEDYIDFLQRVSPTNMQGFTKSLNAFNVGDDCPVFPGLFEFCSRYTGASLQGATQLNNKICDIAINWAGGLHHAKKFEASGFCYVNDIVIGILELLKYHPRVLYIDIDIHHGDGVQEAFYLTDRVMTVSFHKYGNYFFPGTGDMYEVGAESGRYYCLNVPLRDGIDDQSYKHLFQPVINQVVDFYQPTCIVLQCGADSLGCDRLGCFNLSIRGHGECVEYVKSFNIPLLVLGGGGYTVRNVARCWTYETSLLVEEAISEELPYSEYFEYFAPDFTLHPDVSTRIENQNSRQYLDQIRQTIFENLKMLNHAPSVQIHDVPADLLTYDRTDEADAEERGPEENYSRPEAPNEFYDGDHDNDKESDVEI
T2 sequence (Q9Y618 395-489 partner limits assumed): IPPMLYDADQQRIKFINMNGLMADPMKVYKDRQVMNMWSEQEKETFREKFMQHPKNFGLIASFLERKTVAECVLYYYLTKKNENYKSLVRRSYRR
Protocol: as §1, §2

[4] = target: T3, HDAC7 (Homo sapiens, UniProt Q8WUI4); experiment: In vitro HDAC enzyme inhibition assay, HDAC7; type: biochemical; conditions: for HDAC7/HDAC6 in vitro selectivity: ratio of IC50 for HDAC7 relative to that of HDAC6; for IC50: recombinant full-length HDAC7, substrate MAZ1675 22 μM; for selectivity toward HDAC6 compared to HDAC7 (in words): tested in vitro
T3 construct: Recombinant, full-length HDAC protein (BPS Biosciences) was incubated with fluorophore conjugated substrate; purchased BPS Biosciences
T3 sequence (Q8WUI4 1-952): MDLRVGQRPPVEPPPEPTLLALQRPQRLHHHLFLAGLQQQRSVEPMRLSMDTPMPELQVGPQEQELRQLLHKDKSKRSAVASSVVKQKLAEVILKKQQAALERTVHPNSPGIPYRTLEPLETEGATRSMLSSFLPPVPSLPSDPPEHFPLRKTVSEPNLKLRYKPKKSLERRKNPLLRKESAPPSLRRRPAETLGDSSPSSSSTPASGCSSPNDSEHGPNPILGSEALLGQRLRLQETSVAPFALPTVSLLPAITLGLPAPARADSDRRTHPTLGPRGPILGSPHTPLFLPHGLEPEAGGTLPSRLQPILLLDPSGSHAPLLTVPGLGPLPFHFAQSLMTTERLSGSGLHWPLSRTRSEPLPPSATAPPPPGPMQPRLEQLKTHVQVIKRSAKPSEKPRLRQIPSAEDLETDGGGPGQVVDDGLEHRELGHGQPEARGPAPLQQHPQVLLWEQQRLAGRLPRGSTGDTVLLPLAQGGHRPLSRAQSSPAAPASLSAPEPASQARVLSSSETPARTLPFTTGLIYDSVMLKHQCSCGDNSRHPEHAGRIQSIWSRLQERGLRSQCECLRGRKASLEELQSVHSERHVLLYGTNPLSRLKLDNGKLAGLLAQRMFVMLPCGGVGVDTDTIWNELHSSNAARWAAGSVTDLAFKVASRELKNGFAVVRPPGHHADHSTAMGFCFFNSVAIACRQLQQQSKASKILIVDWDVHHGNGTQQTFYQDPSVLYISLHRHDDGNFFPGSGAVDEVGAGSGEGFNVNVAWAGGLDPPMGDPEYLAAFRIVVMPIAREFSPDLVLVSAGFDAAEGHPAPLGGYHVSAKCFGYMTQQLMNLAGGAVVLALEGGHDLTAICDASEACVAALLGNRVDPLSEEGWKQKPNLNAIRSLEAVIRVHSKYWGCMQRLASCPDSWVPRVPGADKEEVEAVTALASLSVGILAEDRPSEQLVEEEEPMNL
Protocol: as §1, §2

[5] = target: T4, HDAC4 (Homo sapiens, UniProt P56524); experiment: In vitro HDAC enzyme inhibition assay, HDAC4; type: biochemical; conditions: for HDAC4/HDAC6 in vitro selectivity: ratio of IC50 for HDAC4 relative to that of HDAC6; for IC50: recombinant full-length HDAC4, substrate MAZ1675 10 μM; for selectivity toward HDAC6 compared to HDAC4 (in words): tested in vitro
T4 construct: Recombinant, full-length HDAC protein (BPS Biosciences) was incubated with fluorophore conjugated substrate; purchased BPS Biosciences
T4 sequence (P56524 whole entry): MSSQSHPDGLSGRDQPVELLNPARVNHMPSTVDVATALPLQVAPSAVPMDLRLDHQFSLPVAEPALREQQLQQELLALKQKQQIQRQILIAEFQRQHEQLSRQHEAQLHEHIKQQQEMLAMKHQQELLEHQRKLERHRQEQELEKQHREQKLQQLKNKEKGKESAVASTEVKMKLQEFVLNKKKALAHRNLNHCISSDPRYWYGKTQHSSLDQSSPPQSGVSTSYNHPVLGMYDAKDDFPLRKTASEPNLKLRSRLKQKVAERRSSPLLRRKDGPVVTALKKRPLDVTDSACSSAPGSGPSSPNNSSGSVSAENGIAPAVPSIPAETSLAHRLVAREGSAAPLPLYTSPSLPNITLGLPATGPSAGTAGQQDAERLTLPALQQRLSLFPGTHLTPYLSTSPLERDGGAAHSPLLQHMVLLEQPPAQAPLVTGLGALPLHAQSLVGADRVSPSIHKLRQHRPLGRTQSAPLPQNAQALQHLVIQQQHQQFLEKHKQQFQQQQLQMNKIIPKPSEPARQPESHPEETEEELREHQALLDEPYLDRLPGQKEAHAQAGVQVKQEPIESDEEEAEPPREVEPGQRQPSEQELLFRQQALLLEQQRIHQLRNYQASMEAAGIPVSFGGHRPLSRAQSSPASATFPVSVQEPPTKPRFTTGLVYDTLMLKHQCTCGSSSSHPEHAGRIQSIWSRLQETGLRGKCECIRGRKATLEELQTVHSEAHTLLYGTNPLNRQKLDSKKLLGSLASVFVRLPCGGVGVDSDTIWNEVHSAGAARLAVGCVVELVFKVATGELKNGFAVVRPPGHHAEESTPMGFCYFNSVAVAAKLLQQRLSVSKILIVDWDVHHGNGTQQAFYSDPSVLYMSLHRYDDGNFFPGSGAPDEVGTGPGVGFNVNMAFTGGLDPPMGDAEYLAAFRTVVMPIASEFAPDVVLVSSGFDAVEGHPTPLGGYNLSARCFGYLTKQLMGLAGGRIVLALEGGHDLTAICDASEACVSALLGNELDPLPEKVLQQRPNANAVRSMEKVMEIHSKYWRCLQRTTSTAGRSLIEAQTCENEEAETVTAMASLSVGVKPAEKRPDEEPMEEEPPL
Protocol: as §1, §2

Compound	EC50 [1]	AcHistone/AcTubulin in cell selectivity toward HDAC6 [1]	IC50 [2]	HDAC3/HDAC6 in vitro selectivity [3]	IC50 [3]	HDAC7/HDAC6 in vitro selectivity [4]	IC50 [4]	HDAC4/HDAC6 in vitro selectivity [5]	IC50 [5]	selectivity toward HDAC6 compared to HDAC4 (in words) [5]	selectivity toward HDAC6 compared to HDAC7 (in words) [4]
O=C(NO)c1ccc(Cn2cnc3cc(F)ccc32)cc1 [A9, 4-((5-fluoro-1H-benzo[d]imidazol-1-yl)methyl)-N-hydroxybenzamide]	132 nM	0.4765	0.0663 nM	9140	606 nM	4925	327 nM	28751	1910 nM	–	–
O=C(NO)c1ccc(Cn2cnc3cc(Cl)ccc32)cc1 [A10, 4-((5-chloro-1H-benzo[d]imidazol-1-yl)methyl)-N-hydroxybenzamide]	188 nM	4.787	0.069 nM	3046	210 nM	4029	278 nM	21516	1480 nM	–	–
O=C(NO)c1ccc(Cn2cnc3cc(Br)ccc32)cc1 [A11, 4-((5-bromo-1H-benzo[d]imidazol-1-yl)methyl)-N-hydroxybenzamide]	174 nM	11.31	0.0167 nM	3936	65.6 nM	4265	71.1 nM	93190	1550 nM	exceptionally high selectivity (Inhibitors with in vitro selectivity values for HDAC6 of at least 30,000 are considered to have exceptionally high selectivity toward HDAC6)	–
COc1ccc2c(c1)ncn2Cc1ccc(C(=O)NO)cc1 [A12, N-hydroxy-4-((5-methoxy-1H-benzo[d]imidazol-1-yl)methyl)benzamide]	221 nM	0.4738	0.217 nM	2293	497 nM	4070	883 nM	12423	2690 nM	–	–
O=C(NO)c1ccc(Cn2c(=O)[nH]c3ccccc32)cc1 [B1, N-hydroxy-4-((2-oxo-2,3-dihydro-1H-benzo[d]imidazol-1-yl)methyl)benzamide]	89.4 nM	2.941	0.0145 nM	14575	212 nM	30509	443 nM	153386	2230 nM	exceptionally high selectivity (Inhibitors with in vitro selectivity values for HDAC6 of at least 30,000 are considered to have exceptionally high selectivity toward HDAC6)	exceptionally high selectivity (Inhibitors with in vitro selectivity values for HDAC6 of at least 30,000 are considered to have exceptionally high selectivity toward HDAC6)
Cc1ccc2c(c1)[nH]c(=O)n2Cc1ccc(C(=O)NO)cc1 [B2, N-hydroxy-4-((5-methyl-2-oxo-2,3-dihydro-1H-benzo[d]imidazol-1-yl)methyl)benzamide]	95.3 nM	2.402	0.00286 nM	6310	18.1 nM	55678	159 nM	412836	1180 nM	exceptionally high selectivity (Inhibitors with in vitro selectivity values for HDAC6 of at least 30,000 are considered to have exceptionally high selectivity toward HDAC6)	exceptionally high selectivity (Inhibitors with in vitro selectivity values for HDAC6 of at least 30,000 are considered to have exceptionally high selectivity toward HDAC6)
O=C(NO)c1ccc(Cn2c(=O)[nH]c3cc(F)ccc32)cc1 [B3, 4-((5-fluoro-2-oxo-2,3-dihydro-1H-benzo[d]imidazol-1-yl)methyl)N-hydroxybenzamide]	70.2 nM	21.1	0.0216 nM	6307	136 nM	17021	367 nM	79927	1720 nM	exceptionally high selectivity (Inhibitors with in vitro selectivity values for HDAC6 of at least 30,000 are considered to have exceptionally high selectivity toward HDAC6)	–
